Values after ≈ are worked out from the molar mass of the structure shown.
Tests used:
Assay in all cases: MIC, agar dilution test
Assay type in all cases: cell-based
[1] = system: Klebsiella 8085; details: Isosensitest medium, Denley multipoint inoculator
Text: (§1) Agar dilution test (Isosensitest medium); Denley multi-

[2] = system: E. coli Neumann; details: Escherichia coli, Isosensitest medium, Denley multipoint inoculator
Text: as §1

[3] = system: E. coli T 7; details: Escherichia coli, T7, Isosensitest medium, Denley multipoint inoculator
Text: as §1

[4] = system: E. coli A 261; details: Escherichia coli, A261, Isosensitest medium, Denley multipoint inoculator
Text: as §1

Structure (SMILES): CN1CCN(c2c(F)cc3c(=O)c(C(=O)O)cn4c3c2OC2CCCC24)CC1 (centres unmarked) [Example 3]
- MIC [1]: 2 µg/mL (≈ 5.16 µM)
- MIC [2]: 2 µg/mL (≈ 5.16 µM)
- MIC [3]: 2 µg/mL (≈ 5.16 µM)
- MIC [4]: 2 µg/mL (≈ 5.16 µM)

Structure (SMILES): CC1(C)COc2c(N3CCNCC3)c(F)cc3c(=O)c(C(=O)O)cn1c23 [Example 7]
- MIC [1]: 0.25 µg/mL (≈ 0.692 µM)
- MIC [2]: 1 µg/mL (≈ 2.77 µM)
- MIC [3]: 0.5 µg/mL (≈ 1.38 µM)
- MIC [4]: 0.125 µg/mL (≈ 0.346 µM)

From US4847375A, “Antibacterial 1,8-bridged 4-quinoline-3-carboxylic acids” (Bayer Aktiengesellschaft, priority 1985, dated 1989)
